Here are results for 16 compounds from US20220257774A1, “AROMATIC AMINE AR AHD BET TARGETING PROTEIN DEGRADATION CHIMERA COMPOUND AND USE” (HINOVA PHARMACEUTICALS INC., priority 2019, published 2022).

One assay has as its system LNCaP/AR cells. As to the kind of experiment: Inhibition of the proliferation of LNCap/AR cells (CCK-8). Type of assay: cell-based. As to conditions: 144 h; LNCaP/AR cells, 6 days culture, CCK-8; read-out: LNCap/AR IC50. In a few lines: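 Proliferation was read by CCK-8 (OD 450 nm, 1 h) after six days of compound exposure. Cells were seeded at 1000 per well overnight, then dosed in duplicate over nine 3-fold steps with a top final concentration of 10 μM in 0.1% DMSO; IC50 was fitted from inhibition curves.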
As to `Cc1ccc(-c2c(C)noc2C)cc1N(CCCCOCC(=O)N[C@H](C(=O)N1C[C@H](O)C[C@H]1C(=O)N[C@@H](C)c1ccc(-c2scnc2C)cc1)C(C)(C)C)c1ccc(-n2ccnc2)cc1` [Compound 85, (2S,4R)-1-((S)-2-(2-(4-((4-(1H-imidazol-1-yl)phenyl)(5-(3,5-dimethylisoxazol-4-yl)-2-methylphenyl)amino)butoxy)acetamido)-3,3-dimethylbutyryl)-4-hydroxy-N—((S)-1-(4-(4-methylthiazol-5-yl)phenyl)ethyl)pyrrolidine-2-carboxamide], the IC50 was 101 to 500 nM.

As to `CC(=O)O[C@@H]1C[C@@H](C(=O)N[C@@H](C)c2ccc(-c3scnc3C)cc2)N(C(=O)[C@@H](NC(=O)COCCCCN(c2ccc(-n3ccnc3)cc2)c2cc(-c3c(C)noc3C)ccc2C)C(C)(C)C)C1` [Compound 86, (3R,5S)-1-((S)-2-(2-(4-((4-(1H-imidazol-1-yl)phenyl)(5-(3,5-dimethylisoxazol-4-yl)-2-methylphenyl)amino)butoxy)acetamido)-3,3-dimethylbutyryl)-5-((S)-1-(4-(4-methylthiazol-5-yl)phenyl)ethyl)carbamoyl)pyrrolidine-3-yl acetate], the IC50 lay within 101 to 500 nM.

For `Cc1ccc(-c2c(C)noc2C)cc1N(CCCCCCCCOCC(=O)N[C@H](C(=O)N1C[C@H](O)C[C@H]1C(=O)N[C@@H](C)c1ccc(-c2scnc2C)cc1)C(C)(C)C)c1ccc(-n2ccnc2)cc1` [Compound 87, (2S,4R)-1-((S)-2-(2-((8-((4-(1H-imidazol-1-yl)phenyl)(5-(3,5-methylisoxazol-4-yl)-2-methylphenyl)amino)cetyl)oxy)acetylamino)-3,3-dimethylbutyryl)-4-hydroxy-N—((S)-1-(4-(4-methylthiazol-5-yl)phenyl)ethyl)pyrrolidinyl-2-formamide], the IC50 was in the range of 501 to 2000 nM.

`CCCCCCCCC(CCCCCCCOCC(=O)N[C@H](C(=O)N1C[C@H](OC(C)=O)C[C@H]1C(=O)N[C@@H](C)c1ccc(-c2scnc2C)cc1)C(C)(C)C)N(c1ccc(-n2ccnc2)cc1)c1cc(-c2c(C)noc2C)ccc1C` (stereo partly drawn) [Compound 88, (3R,5S)-1-((S)-2-(2-((8-((4-(1H-imidazol-1-yl)phenyl)(5-(3,5-dimethylisoxazol-4-yl)-2-methylphenyl)amino)cetyl)oxy)acetylamino)-3,3-dimethylbutyryl)-5-(((S)-1-(4-(4-methylthiazol-5-yl)phenyl)ethyl)carbamoyl)pyrrolidine-3-yl acetate]: the IC50 lay within 501 to 2000 nM.

Turning to `Cc1ccc(-c2c(C)noc2C)cc1N(CCCCCOCC(=O)N[C@H](C(=O)N1C[C@H](O)C[C@H]1C(=O)N[C@@H](C)c1ccc(-c2scnc2C)cc1)C(C)(C)C)c1ccc(-n2ccnn2)cc1` [Compound 89, (2S,4R)-1-((S)-2-(2-((5-((4-(1H-1,2,3-triazol-1-yl)phenyl)(5-(3,5-dimethylisoxazol-4-yl)-2-methylphenyl)amino)pentyl)oxy)acetylamino)-3,3-dimethylbutyryl)-4-hydroxy-N—((S)-1-(4-(4-methylthiazol-5-yl)phenyl)ethyl)-pyrrolidinyl-2-formamide], the IC50 is below 100 nM.

For `CC(=O)O[C@@H]1C[C@@H](C(=O)N[C@@H](C)c2ccc(-c3scnc3C)cc2)N(C(=O)[C@@H](NC(=O)COCCCCCN(c2ccc(-n3ccnn3)cc2)c2cc(-c3c(C)noc3C)ccc2C)C(C)(C)C)C1` [Compound 90, (3R,5S)-1-((S)-2-(2-((5-((4-(1H-1,2,3-triazol-1-yl)phenyl)(5-(3,5-dimethylisoxazol-4-yl)-2-methylphenyl)amino)pentyl)oxy)acetylamino)-3,3-dimethylbutyryl)-5-(((S)-1-(4-(4-methylthiazol-5-yl)phenyl)ethyl)aminoformyl)pyrrolidinyl-3-yl acetate], the IC50 lay in the range of 101 to 500 nM.

As for `Cc1ccc(-c2c(C)noc2C)cc1N(CCCCCOCC(=O)N[C@H](C(=O)N1C[C@H](O)C[C@H]1C(=O)N[C@@H](C)c1ccc(-c2scnc2C)cc1)C(C)(C)C)c1ccc(-n2cncn2)cc1` [Compound 91, (2S,4R)-1-((S)-2-(2-((5-((4-(1H-1,2,4-triazol-1-yl)phenyl)(5-(3,5-dimethylisoxazol-4-yl)-2-methylphenyl)amino)pentyl)oxy)acetylamino)-3,3-dimethylbutyryl)-4-hydroxy-N—((S)-1-(4-(4-methylthiazol-5-yl)phenyl)ethyl)-pyrrolidinyl-2-formamide], the IC50 is 101 to 500 nM.

On to `CC(=O)O[C@@H]1C[C@@H](C(=O)N[C@@H](C)c2ccc(-c3scnc3C)cc2)N(C(=O)[C@@H](NC(=O)COCCCCCN(c2ccc(-n3cncn3)cc2)c2cc(-c3c(C)noc3C)ccc2C)C(C)(C)C)C1` [Compound 92, (3R,5S)-1-((S)-2-(2-((5-((4-(1H-1,2,4-triazol-1-yl)phenyl)(5-(3,5-dimethylisoxazol-4-yl)-2-methylphenyl)amino)pentyl)oxy)acetylamino)-3,3-dimethylbutyryl)-5-(((S)-1-(4-(4-methylthiazol-5-yl)phenyl)ethyl)aminoformyl)pyrrolidinyl-3-yl acetate], for which the IC50 fell in the range of 101 to 500 nM.

On to `Cc1ccc(-c2c(C)noc2C)cc1N(CCCCCOCC(=O)N[C@H](C(=O)N1C[C@H](O)C[C@H]1C(=O)N[C@@H](C)c1ccc(-c2scnc2C)cc1)C(C)(C)C)c1ccc(-n2cnnc2)cc1` [Compound 93, (2S,4R)-1-((S)-2-(2-((5-((4-(1H-1,3,4-triazol-1-yl)phenyl)(5-(3,5-dimethylisoxazol-4-yl)-2-methylphenyl)amino)pentyl)oxy)acetylamino)-3,3-dimethylbutyryl)-4-hydroxy-N—((S)-1-(4-(4-methylthiazol-5-yl)phenyl)ethyl)-pyrrolidinyl-2-formamide], for which the IC50 lay in the range of 101 to 500 nM.

Consider `CC(=O)O[C@@H]1C[C@@H](C(=O)N[C@@H](C)c2ccc(-c3scnc3C)cc2)N(C(=O)[C@@H](NC(=O)COCCCCCN(c2ccc(-n3cnnc3)cc2)c2cc(-c3c(C)noc3C)ccc2C)C(C)(C)C)C1` [Compound 94], for which the IC50 was 101 to 500 nM.

As to `Cc1cn(-c2ccc(N(CCCCCOCC(=O)N[C@H](C(=O)N3C[C@H](O)C[C@H]3C(=O)N[C@@H](C)c3ccc(-c4scnc4C)cc3)C(C)(C)C)c3cc(-c4c(C)noc4C)ccc3C)cc2)cn1` [Compound 95, (2S,4R)-1-((S)-2-(2-((5-((5-(3,5-dimethylisoxazol-4-yl)-2-methylphenyl)(4-(4-methyl-1H-imidazol-1-yl)phenyl)amino)pentyl)oxy)acetylamino)-3,3-dimethylbutyryl)-4-hydroxy-N—((S)-1-(4-(4-methylthiazol-5-yl)phenyl)ethyl)-pyrrolidinyl-2-formamide], the IC50 fell in the range of 101 to 500 nM.

As for `Cc1ccc(-c2c(C)noc2C)cc1N(CCCCCOCC(=O)N[C@H](C(=O)N1C[C@H](O)C[C@H]1C(=O)N[C@@H](C)c1ccc(-c2scnc2C)cc1)C(C)(C)C)c1ccc(-n2ccnc2C)cc1` [Compound 97, (2S,4R)-1-((S)-2-(2-((5-((5-(3,5-dimethylisoxazol-4-yl)-2-methylphenyl)(4-(2-methyl-1H-imidazol-1-yl)phenyl)amino)pentyl)oxy)acetylamino)-3,3-dimethylbutyryl)-4-hydroxy-N—((S)-1-(4-(4-methylthiazol-5-yl)phenyl)ethyl)-pyrrolidinyl-2-formamide], the IC50 was 101 to 500 nM.

With `CC(=O)O[C@@H]1C[C@@H](C(=O)N[C@@H](C)c2ccc(-c3scnc3C)cc2)N(C(=O)[C@@H](NC(=O)COCCCCCN(c2ccc(-n3ccnc3C)cc2)c2cc(-c3c(C)noc3C)ccc2C)C(C)(C)C)C1` [Compound 98, (3R,5S)-1-((S)-2-(2-((5-((5-(3,5-dimethylisoxazol-4-yl)-2-methylphenyl)(4-(2-methyl-1H-imidazol-1-yl)phenyl)amino)pentyl)oxy)acetylamino)-3,3-dimethylbutyryl)-5-(((S)-1-(4-(4-methylthiazol-5-yl)phenyl)ethyl)aminoformyl)pyrrolidinyl-3-yl acetate], the IC50 was in the range of 101 to 500 nM.

Turning to `CC(=O)O[C@@H]1C[C@@H](C(=O)N[C@@H](C)c2ccc(-c3scnc3C)cc2)N(C(=O)[C@@H](NC(=O)CCN2CCC(CN(c3ccc(-n4ccnc4)c(Br)c3)c3cc(-c4c(C)noc4C)ccc3C)CC2)C(C)(C)C)C1` [Compound 99, (3R,5S)-1-((S)-2-(3-(4-(((3-Bromo-4-(1H-imidazol-1-yl)phenyl)(5-(3,5-dimethylisoxazol-4-yl)-2-methylphenyl)amino)methyl)piperidin-1-yl)propionamide)-3,3-dimethylbutyryl)-5-(((S)-1-(4-(4-methylthiazol-5-yl)phenyl)ethyl)carbamoyl)pyrrolidine-3-yl acetate], the IC50 is 501 to 2000 nM.

With `Cc1ccc(-c2c(C)noc2C)cc1N(CC1CCN(CCC(=O)N[C@H](C(=O)N2C[C@H](O)C[C@H]2C(=O)N[C@@H](C)c2ccc(-c3scnc3C)cc2)C(C)(C)C)CC1)c1ccc(-n2ccnc2)c(Br)c1` [Compound 100, (2S,4R)-1-((S)-2-(3-(4-(((3-Bromo-4-(1H-imidazol-1-yl)phenyl)(5-(3,5-dimethylisoxazol-4-yl)-2-methylphenyl)amino)methyl)piperidin-1-yl)propionamide)-3,3-dimethylbutyryl)-4-hydroxy-N—((S)-1-(4-(4-methylthiazol-5-yl)phenyl)ethyl)pyrrolidine-2-formamide], the IC50 lay in the range of 501 to 2000 nM.

The assay is the same for the next values; noted with them: LNCaP/AR cells, 6 days culture, CCK-8; read-out: LNCap/AR IC50.
As for `CC(=O)O[C@@H]1C[C@@H](C(=O)N[C@@H](C)c2ccc(-c3scnc3C)cc2)N(C(=O)[C@@H](NC(=O)COCCCCCN(c2ccc(-n3cnc(C)c3)cc2)c2cc(-c3c(C)noc3C)ccc2C)C(C)(C)C)C1` [Compound 96, (3R,5S)-1-((S)-2-(2-((5-((5-(3,5-dimethylisoxazol-4-yl)-2-methylphenyl)(4-(4-methyl-1H-imidazol-1-yl)phenyl)amino)pentyl)oxy)acetylamino)-3,3-dimethylbutyryl)-5-(((S)-1-(4-(4-methylthiazol-5-yl)phenyl)ethyl)aminoformyl)pyrrolidinyl-3-yl acetate], the IC50 was below 100 nM.
